Experimental data published in US20240101521A1, “DIAMINOTRIAZINE COMPOUNDS” (BASF SE, priority 2021, published 2024).

How the values were obtained:
Experiment in all cases: greenhouse pre-emergence herbicidal test
Format in all cases: in vivo
[1] = test system: Amaranthus retroflexus; settings: scale 0 to 100
Description: (§1) The culture containers used were plastic flowerpots containing loamy sand with approximately 3.0% of humus as the substrate. The seeds of the test plants were sown separately for each species.
(§2) For the pre-emergence treatment, the active ingredients, which had been suspended or emulsified in water, were applied directly after sowing by means of finely distributing nozzles. The containers were irrigated gently to promote germination and growth and subsequently covered with transparent plastic hoods until the plants had rooted. This cover caused uniform germination of the test plants, unless this had been impaired by the active ingredients. For the post-emergence treatment, the test plants were first grown to a height of 3 to 15 cm, depending on the plant habit, and only then treated with the active ingredients which had been suspended or emulsified in water. For this purpose, the test plants were either sown directly and grown in the same containers, or they were first grown separately as seedlings and transplanted into the test containers a few days prior to treatment.
(§3) Depending on the species, the plants were kept at 10-25° C. or 20-35° C., respectively.
(§4) The test period extended over 2 to 4 weeks. During this time, the plants were tended, and their response to the individual treatments was evaluated.
(§5) Evaluation was carried out using a scale from 0 to 100. 100 means no emergence of the plants, or complete destruction of at least the aerial moieties, and 0 means no damage, or normal course of growth. A moderate herbicidal activity is given at values of at least 60, a good herbicidal activity is given at values of at least 70, and a very good herbicidal activity is given at values of at least 85.
(§6) The plants used in the greenhouse experiments were of the following species: […]

[2] = test system: Alopecurus myosuroides; settings: scale 0 to 100
Description: as §1, §2, §3, §4, §5, §6

[3] = test system: Setaria faberi; settings: scale 0 to 100
Description: as §1, §2, §3, §4, §5, §6

[4] = test system: Echinochloa crus-galli; settings: scale 0 to 100
Description: as §1, §2, §3, §4, §5, §6

[5] = test system: Abutilon theophrasti; settings: pre-emergence, 62,5 g/ha, scale 0 to 100
Description: as §1, §2, §3, §4, §5, §6

[6] = test system: Lolium multiflorum; settings: pre-emergence, 62,5 g/ha, scale 0 to 100
Description: as §1, §2, §3, §4, §5, §6

SMILES | herbicidal activity [6] | herbicidal activity ([1]; pre-emergence, 62,5 g/ha) | herbicidal activity ([2]; pre-emergence, 62,5 g/ha) | herbicidal activity ([3]; pre-emergence, 62,5 g/ha) | further results
COc1c(Cl)cc(Cl)c(F)c1Nc1nc(N)nc(C(C)F)n1 (stereo not drawn) [Example 63] |  |  |  |  | herbicidal activity ([1]; pre-emergence, 31 g/ha): 80%; herbicidal activity ([2]; pre-emergence, 31 g/ha): 80%; herbicidal activity ([3]; pre-emergence, 31 g/ha): 100%
C#CC(C)Oc1c(Br)cc(F)c(F)c1Nc1nc(N)nc(C2(F)CCCC2)n1 (stereo not drawn) [Example 97] |  |  |  |  | herbicidal activity ([1]; pre-emergence, 62 g/ha): 85%; herbicidal activity ([2]; pre-emergence, 62 g/ha): 70%; herbicidal activity ([3]; pre-emergence, 62 g/ha): 85%
CC#CC(C)Oc1c(Cl)cc(F)c(F)c1Nc1nc(N)nc(C(C)(C)F)n1 (stereo not drawn) [Example 98] |  |  |  |  | herbicidal activity ([1]; pre-emergence, 62 g/ha): 100%; herbicidal activity ([2]; pre-emergence, 62 g/ha): 100%; herbicidal activity ([3]; pre-emergence, 62 g/ha): 100%
CC#CC(C)Oc1c(Cl)cc(F)c(F)c1Nc1nc(N)nc(C2(F)CCCC2)n1 (stereo not drawn) [Example 100] |  |  |  |  | herbicidal activity ([4]; pre-emergence, 62 g/ha): 100%; herbicidal activity ([2]; pre-emergence, 62 g/ha): 98%; herbicidal activity ([3]; pre-emergence, 62 g/ha): 100%
CC#CC(C)Oc1c(F)cc(F)c(F)c1Nc1nc(N)nc(C2(F)CCCC2)n1 (stereo not drawn) [Example 104] | 100% |  |  |  | herbicidal activity [5]: 100%; herbicidal activity ([4]; pre-emergence, 62,5 g/ha): 100%
C#CC(C)(F)c1nc(N)nc(Nc2c(F)c(F)cc(Br)c2OC)n1 (stereo not drawn) [Example 115] |  | 100% | 98% |  | herbicidal activity [5]: 90%
CCC(C)(F)c1nc(N)nc(Nc2c(F)c(F)cc(Cl)c2OC)n1 (stereo not drawn) [Example 116] |  | 100% | 100% |  | herbicidal activity [5]: 100%
CC#CC(Oc1c(F)cc(F)c(F)c1Nc1nc(N)nc(C(C)(C)F)n1)C1CC1 (stereo not drawn) [Example 119] | 70% | 85% |  | 85% | 
COc1c(Br)cc(F)c(F)c1Nc1nc(N)nc(C(C)F)n1 (stereo not drawn) [Example 120] |  | 100% |  |  | herbicidal activity [5]: 100%; herbicidal activity ([4]; pre-emergence, 62,5 g/ha): 100%
COc1c(Br)cc(F)c(F)c1Nc1nc(N)nc(C(C)(F)CBr)n1 (stereo not drawn) [Example 123] |  | 100% | 100% | 100% | 
CC(C)(F)c1nc(N)nc(Nc2c(F)c(F)cc(Br)c2OC/C=C/Cl)n1 [Example 124] | 80% | 100% |  | 100% | 
CC(C)(F)c1nc(N)nc(Nc2c(F)c(F)cc(Cl)c2OC/C=C/Br)n1 [Example 125] | 100% | 100% |  | 100% | 
CC(C)(F)c1nc(N)nc(Nc2c(F)c(F)cc(F)c2OC/C=C/Cl)n1 [Example 126] | 100% | 100% |  | 100% | 
CC(C)(F)c1nc(N)nc(Nc2c(F)c(F)cc(F)c2OC/C=C/Br)n1 [Example 127] | 100% | 100% |  | 100% | 
C#CCOc1c(Cl)cc(F)c(F)c1Nc1nc(N)nc(C2(F)CCCC2)n1 [Example 129] | 90% | 95% |  | 100% | 
COc1c(Cl)c(F)c(F)c(F)c1Nc1nc(N)nc(C(C)(C)F)n1 [Example 148] | 100% | 100% | 100% |  | 
COc1c(Br)c(F)c(F)c(F)c1Nc1nc(N)nc(C(C)(C)F)n1 [Example 164] |  | 100% | 100% | 100% | 
COc1c(C)c(F)c(F)c(F)c1Nc1nc(N)nc(C(C)(C)F)n1 [Example 169] |  | 100% | 100% |  | herbicidal activity ([4]; pre-emergence, 62,5 g/ha): 100%
C=CC(C)(F)c1nc(N)nc(Nc2c(F)c(F)c(F)c(Cl)c2OC)n1 (stereo not drawn) [Example 173] |  | 100% | 100% | 95% | 
COc1c(Cl)c(F)c(F)c(F)c1Nc1nc(N)nc(C(C)(C)OC)n1 [Example 174] | 100% | 100% | 98% |  | 
